# pEC50: −log10 of the molar value. *1 amine or outer side, *2 acyl side, *3 side chain or, on linkers, in order; H or OH if unused. Where a SMILES comes first, the peptide text is derived from it. Bridges are numbered along the chain shown (N, C = ends). [ ]: non-standard residue; d: D form. X48 = CCCC[C@@H](/C=C\[C@@H](Cc1cccnc1)C(=O)[*:2])N[*:1]; NMeNva(5-imidazol-1-yl) = CN[C@@H](CCCn1ccnc1)C(=O)O; Phe(4-guanidino) = N=C(N)Nc1ccc(C[C@H](N)C(=O)O)cc1; N(3-imidazol-1-ylpropyl)Gly = O=C(O)CNCCCn1ccnc1; X59 = O=C([C@H](Cc1ccc(CN2CCCC2)cc1)N[*:1])[*:2]; X78 = Nc1ccnc2ccc(C[C@H](N[*:1])C(=O)[*:2])cc12; Ala(pyrimidin-5-yl) = N[C@@H](Cc1cncnc1)C(=O)O; X6 = O=C([C@H](Cc1cnn(C2COC2)c1)N[*:1])[*:2]; X14 = O=C([C@H](Cc1c(F)cncc1F)N[*:1])[*:2]; Bip = N[C@@H](Cc1ccc(-c2ccccc2)cc1)C(=O)O; X5 = O=C([C@H](Cc1c(F)ccnc1F)N[*:1])[*:2]; X10 = CS(=O)(=O)CCCCN(CC(=O)[*:2])[*:1]; Nle(5,5-F2) = CC(F)(F)CC[C@H](N)C(=O)O; NHCH2CH2SCH2CO = O=C(CSCCN[*:1])[*:2]; Ala(cPent) = N[C@@H](CC1CCCC1)C(=O)O; Phe(2-F) = N[C@@H](Cc1ccccc1F)C(=O)O; X31 = O=C([C@H](CCC1CC1)N[*:1])[*:2]; NMe3Pal = CN[C@@H](Cc1cccnc1)C(=O)O; X1 = O=C(C12CC(CN[*:1])(C1)C2)[*:2]; X12 = CC(=O)NCCCN(CC(=O)[*:2])[*:1]; hTyr = N[C@@H](CCc1ccc(O)cc1)C(=O)O; Ala(cPr) = N[C@@H](CC1CC1)C(=O)O; NMeF = CN[C@@H](Cc1ccccc1)C(=O)O; PhLac = O=C(O)[C@@H](O)Cc1ccccc1; X79 = O=C(C1CCC(N[*:1])CC1)[*:2]; 3Pal = N[C@@H](Cc1cccnc1)C(=O)O; d3Pal = N[C@H](Cc1cccnc1)C(=O)O; Ahp(2) = CCCCC[C@H](N)C(=O)O; Cba = N[C@@H](CC1CCC1)C(=O)O; hLeu = CC(C)CC[C@H](N)C(=O)O; hLys = NCCCCC[C@H](N)C(=O)O; αMeC = C[C@](N)(CS)C(=O)O; NMeA = CN[C@@H](C)C(=O)O; Nle = CCCC[C@H](N)C(=O)O; AEEA = NCCOCCOCC(=O)O
# Target: KRAS-G12D protein (Homo sapiens, UniProt P01116, G12D)
# Test: SOS-mediated nucleotide exchange assay (BODIPY-GDP / Tb-streptavidin TR-FRET)
# Type: biochemical
# Chain of KRAS-G12D protein (P01116 1-188 isoform P01116-2 G12D): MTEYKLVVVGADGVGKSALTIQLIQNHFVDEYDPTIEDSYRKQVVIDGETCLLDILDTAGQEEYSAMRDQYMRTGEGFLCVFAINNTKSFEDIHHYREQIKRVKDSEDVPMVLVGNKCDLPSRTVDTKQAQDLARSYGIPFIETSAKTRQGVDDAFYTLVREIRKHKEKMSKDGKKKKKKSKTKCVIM
row,Compound,pEC50
1,"CCCC[C@@H]1NC(=O)[C@H](Cc2ccc(C(F)(F)F)nc2)NC(=O)[C@H](CCCn2ccnc2)N(C)C(=O)[C@H](Cc2ccccc2)OC(=O)C23CC(CNC(=O)[C@H](Cc4ccccc4)N(C)C(=O)[C@H](CCCC)NC(=O)[C@H](Cc4ccccc4F)NC1=O)(C2)C3 (single isomer, unassigned) [compound 219, cyclo(FLac-NMeNvaImid-4CF33Pal-Nle-Phe2F-Nle-NMeF-amBCP)]",7.20
2,"CCCC[C@@H]1NC(=O)[C@H](CCCCCN)NC(=O)[C@H](CCCNC(=N)N)NC(=O)[C@H](Cc2ccccc2)NC(=O)CSCCNC(=O)[C@H](Cc2ccccc2)N(C)C(=O)[C@H](CCc2ccc(O)cc2)NC(=O)[C@H](Cc2ccc(-c3ccccc3)cc2)NC1=O [compound 194, cyclo(F-R-hK-Nle-Bip-hY-NMeF-Cysteamine-ClAc)] (cyclo([Bip][hTyr][NMeF][NHCH2CH2SCH2CO]FR[hLys][Nle]))",5.35
3,"C[C@H]1C(=O)N[C@@H](Cc2cnn(C3COC3)c2)C(=O)N[C@@H](CC2CC2)C(=O)N[C@@H](Cc2ccccc2F)C(=O)N[C@@H](CCC(C)(F)F)C(=O)N(C)[C@@H](Cc2ccccc2)C(=O)NCC23CC(C2)(C3)C(=O)O[C@@H](Cc2ccccc2)C(=O)N1C [compound 291, cyclo(FLac-NMcA-AlaPyzlOx-cPrA-Phe2F-Nle3F2-NMeF-amBCP)] (cyclo([Ala(cPr)][Phe(2-F)][Nle(5,5-F2)][NMeF][X1][PhLac][NMeA][X6]))",9.00
4,"CCCCC[C@@H]1NC(=O)[C@H](Cc2ccc(OC)cc2)NC(=O)[C@H](CC2CCC2)NC(=O)[C@H](Cc2ccoc2)NC(=O)[C@H](CCCNC(=N)N)NC(=O)[C@H](Cc2ccccc2)NC(=O)CSC[C@@](C)(C(N)=O)NC(=O)[C@H](Cc2ccccc2)N(C)C1=O [compound 371, cyclo(F-R-Ala3Fur-cBuA-TyrOMe-Ahp-NMeF-aMeCl-ClAc)]",7.08
5,"CCCC[C@@H]1NC(=O)[C@H](Cc2cncnc2)NC(=O)[C@H](C)N(C)C(=O)[C@H](Cc2ccccc2)OC(=O)C23CC(CNC(=O)[C@H](Cc4cccnc4)N(C)C(=O)[C@H](CCCC)NC(=O)[C@H](Cc4ccccc4F)NC1=O)(C2)C3 [compound 237, cyclo(FLac-NMeA-PyrimAla-Nle-Phe2F-Nle-NMe3Pal-amBCP)] (cyclo([NMe3Pal][X1][PhLac][NMeA][Ala(pyrimidin-5-yl)][Nle][Phe(2-F)][Nle]))",7.47
6,"CCCCC[C@@H]1NC(=O)[C@H](Cc2ccc(OC)cc2)NC(=O)[C@H](CC2CCC2)NC(=O)[C@H](CCCCCN)NC(=O)[C@H](CCCNC(=N)N)NC(=O)[C@H](Cc2ccccc2)NC(=O)CSC[C@@](C)(C(N)=O)NC(=O)[C@H](Cc2ccccc2)N(C)C1=O [compound 348, cyclo(F-R-hK-cBuA-TyrOMe-Ahp-NMeF-aMeCl-ClAc)] ({CH2CO}-FR[hLys][Cba]Y(Me)[Ahp(2)][NMeF][αMeC]-NH2; thioether N-8)",7.34
7,"CCCC[C@@H]1NC(=O)[C@H](Cc2ccccc2F)NC(=O)[C@H](CC2CCC2)NC(=O)[C@@H](Cc2cccnc2)NC(=O)CN(CCCn2ccnc2)C(=O)[C@H](Cc2ccccc2)NC(=O)C23CC(CNC(=O)[C@H](Cc4cccnc4)N(C)C1=O)(C2)C3 [compound 181, cyclo(F-IPG-d3Pal-cBuA-Phe2F-Nle-NMe3Pal-amBCP)] (cyclo(F[N(3-imidazol-1-ylpropyl)Gly][d3Pal][Cba][Phe(2-F)][Nle][NMe3Pal][X1]))",5.91
8,"CCCC[C@@H]1NC(=O)[C@H](Cc2cccnc2)NC(=O)[C@H](CCCNC(=N)N)NC(=O)[C@H](Cc2ccccc2)NC(=O)CSC[C@@](C)(C(=O)O)NC(=O)[C@H](Cc2cccnc2)N(C)C(=O)[C@H](CCCC)NC(=O)[C@H](Cc2ccccc2F)NC1=O [compound 148, cyclo(F-R-3Pal-Nle-Phe2F-Nle-NMe3Pal-aMeC-ClAc)] ({CH2CO}-FR[3Pal][Nle][Phe(2-F)][Nle][NMe3Pal][αMeC]-OH; thioether N-8)",6.43
9,"CCCC[C@H]1/C=C\[C@@H](Cc2cccnc2)C(=O)NCC23CC(C2)(C3)C(=O)O[C@@H](Cc2ccccc2)C(=O)N(C)[C@@H](C)C(=O)N[C@@H](Cc2cncnc2)C(=O)N[C@@H](CCCC)C(=O)N[C@@H](Cc2ccccc2F)C(=O)N1 [SEQ ID NO: 137, cyclo(FLac-NMeA- PyrimAla-Nle-Phe2F- Nlecalken3Pal-amBCP)] (cyclo([NMeA][Ala(pyrimidin-5-yl)][Nle][Phe(2-F)][X48][X1][PhLac]))",6.23
10,"CCCCC[C@@H]1NC(=O)[C@H](Cc2ccc(O)cc2)NC(=O)[C@H](CC(C)C)NC(=O)[C@H](Cc2ccc(O)cc2)NC(=O)[C@H](CCCNC(=N)N)NC(=O)[C@H](Cc2ccccc2)NC(=O)CSC[C@@H](C(=O)NCCOCCOCC(=O)NCCOCCOCC(N)=O)NC(=O)[C@H](Cc2ccccc2)N(C)C1=O [compound 58, cyclo(F-R-Y-L-Y-Ahp-NMeF-C4-ClAc)] ({CH2CO}-FRYLY[Ahp(2)][NMeF]C[AEEA][AEEA]-NH2; thioether N-8)",6.36
11,"CCCC[C@@H]1NC(=O)[C@H](Cc2cccnc2)NC(=O)CN(CCCCS(C)(=O)=O)C(=O)[C@H](Cc2ccccc2)OC(=O)C23CC(CNC(=O)[C@H](Cc4cccnc4)N(C)C(=O)[C@H](CCCC)NC(=O)[C@H](Cc4ccccc4F)NC1=O)(C2)C3 [compound 407, cyclo(FLac-NOHmsbGly-3Pal-Nle-Phe2F-Nle-NMe3Pal-amBCP)] (cyclo([3Pal][Nle][Phe(2-F)][Nle][NMe3Pal][X1][PhLac][X10]))",6.44
12,"CC(C)CC[C@@H]1NC(=O)[C@H](Cc2c(F)cncc2F)NC(=O)[C@H](CC2CC2)NC(=O)[C@H](Cc2cncnc2)NC(=O)[C@H](C)N(C)C(=O)[C@H](Cc2ccccc2)OC(=O)C23CC(CNC(=O)[C@H](Cc4ccccc4)N(C)C1=O)(C2)C3 [compound 292, cyclo(FLac-NMeA-PyrimAla-cPrA-4Pal26F2-hL-NMeF-amBCP)] (cyclo([Ala(cPr)][X14][hLeu][NMeF][X1][PhLac][NMeA][Ala(pyrimidin-5-yl)]))",7.19
13,"CCCC[C@@H]1NC(=O)[C@H](Cc2cncnc2)NC(=O)[C@H](CCCn2ccnc2)N(C)C(=O)[C@H](Cc2ccccc2)OC(=O)C23CC(CNC(=O)[C@H](Cc4ccccc4)N(C)C(=O)[C@H](CCCC)NC(=O)[C@H](Cc4ccccc4F)NC1=O)(C2)C3 (single isomer, unassigned) [compound 223, cyclo(FLac-NMeNvalmid-PyrimAla-Nle-Phe2F-Nle-NMeF-amBCP)]",7.60
14,"CC(C)CC[C@@H]1NC(=O)[C@H](Cc2ccccc2F)NC(=O)[C@H](CC2CCCC2)NC(=O)[C@H](Cc2cncnc2)NC(=O)[C@H](C)N(C)C(=O)[C@H](Cc2ccccc2)OC(=O)C23CC(CNC(=O)[C@H](Cc4ccccc4)N(C)C1=O)(C2)C3 [compound 135, cyclo(FLac-NMcA-PyrimAla-cPeA-Phe2F-hL-NMeF-amBCP)] (cyclo([Ala(cPent)][Phe(2-F)][hLeu][NMeF][X1][PhLac][NMeA][Ala(pyrimidin-5-yl)]))",8.38
15,"CCCC[C@@H]1NC(=O)[C@H](Cc2ccc(O)cc2)NC(=O)[C@H](CC(C)C)NC(=O)[C@H](Cc2ccc(O)cc2)NC(=O)[C@H](CCCNC(=N)N)NC(=O)[C@H](Cc2ccccc2)NC(=O)CSC[C@H](C(N)=O)NC(=O)[C@H](Cc2ccccc2)N(C)C1=O [compound 18, cyclo(F-R-Y-L-Y-Nle-NMeF-dCl-ClAc)]",6.08
16,"CCCCC[C@@H]1NC(=O)[C@H](Cc2ccc(OC)cc2)NC(=O)[C@H](CC2CCC2)NC(=O)[C@H](Cc2ccc(NC(=N)N)cc2)NC(=O)CN(CCCNC(C)=O)C(=O)[C@H](Cc2ccccc2)NC(=O)CSC[C@@](C)(C(N)=O)NC(=O)[C@H](Cc2ccccc2)N(C)C1=O [compound 387, cyclo(F-AcApG-Phe4Gn-cBuA-TyrOMe-Ahp-NMcF-aMeCl-ClAc)] ({CH2CO}-F[X12][Phe(4-guanidino)][Cba]Y(Me)[Ahp(2)][NMeF][αMeC]-NH2; thioether N-8)",6.79
17,"CC(C)CC[C@@H]1NC(=O)[C@H](Cc2c(F)ccnc2F)NC(=O)[C@H](CC2CC2)NC(=O)[C@H](Cc2cncnc2)NC(=O)[C@H](C)N(C)C(=O)[C@H](Cc2ccccc2)OC(=O)C23CC(CNC(=O)[C@H](Cc4ccccc4)N(C)C1=O)(C2)C3 [compound 295, cyclo(FLac-NMeA-PyrimAla-cPrA-3Pal26F2-hL-NMeF-amBCP)] (cyclo([Ala(cPr)][X5][hLeu][NMeF][X1][PhLac][NMeA][Ala(pyrimidin-5-yl)]))",7.20
18,"CCCC[C@@H]1NC(=O)[C@H](Cc2ccc(OC)cc2)NC(=O)[C@H](CC(C)C)NC(=O)[C@H](Cc2ccc(NC(=N)N)cc2)NC(=O)[C@H](Cc2ccc3nccc(N)c3c2)NC(=O)[C@H](Cc2ccccc2)NC(=O)CSC[C@@H](C(N)=O)NC(=O)[C@H](Cc2ccccc2)N(C)C1=O [compound 29, cyclo(F-6Quin4NH2-Phe4Gn-L-TyrOMe-Nle-NMeF-Cl-ClAc)] ({CH2CO}-F[X78][Phe(4-guanidino)]LY(Me)[Nle][NMeF]C-NH2; thioether N-8)",5.11
19,"CCCC[C@@H]1NC(=O)[C@H](Cc2cccnc2)NC(=O)[C@H](CCCNC(=N)N)NC(=O)[C@H](Cc2ccccc2)NC(=O)C2CCC(CC2)NC(=O)[C@H](Cc2ccccc2)N(C)C(=O)[C@H](CCCC)NC(=O)[C@H](Cc2ccc(OC)cc2)NC1=O [compound 201, cyclo(F-R-3Pal-Nle-TyrOMe-Nle-NMeF-cHxclacid4NH2)] (cyclo([3Pal][Nle]Y(Me)[Nle][NMeF][X79]FR))",6.59
20,"C[C@H]1C(=O)N[C@@H](Cc2cncnc2)C(=O)N[C@@H](CC2CCC2)C(=O)N[C@@H](Cc2ccccc2F)C(=O)N[C@@H](CCC2CC2)C(=O)N(C)[C@@H](Cc2ccccc2)C(=O)NCC23CC(C2)(C3)C(=O)O[C@@H](Cc2ccccc2)C(=O)N1C [compound 115, cyclo(FLac-NMeA-PyrimAla-cBuA-Phe2F-hcPrA-NMeF-amBCP)] (cyclo([Cba][Phe(2-F)][X31][NMeF][X1][PhLac][NMeA][Ala(pyrimidin-5-yl)]))",8.40
21,"CCCC[C@@H]1NC(=O)[C@H](Cc2ccc(CN3CCCC3)cc2)NC(=O)[C@H](CCCn2ccnc2)N(C)C(=O)[C@H](Cc2ccccc2)NC(=O)C23CC(CNC(=O)[C@H](Cc4cccnc4)N(C)C(=O)[C@H](CCCC)NC(=O)[C@H](Cc4ccccc4F)NC1=O)(C2)C3 [compound 263, cyclo(F-NMeNvaImid-Phe4cPyrr-Nle-Phe2F-Nle-NMe3Pal-amBCP)] (cyclo(F[NMeNva(5-imidazol-1-yl)][X59][Nle][Phe(2-F)][Nle][NMe3Pal][X1]))",7.38

# From patent US20260001914A1, “MACROCYCLIC PEPTIDES TARGETING KRAS” (Merck Sharp & Dohme LLC, priority 2022, published 2026)
